According to patent US11964041B2, “Compositions comprising levan and use thereof” (GAN SHMUEL FOODS LTD., priority 2018, dated 2024):

What was measured:
Format in all cases: cell-based
[1] = system: Staphylococcus epidermidis; experiment: Bacterial growth, minimal inhibition concentration (MIC) assay; settings: Ampicillin 100 μg/ml, positive control
Experimental: The experiment was conducted in Staphylococcus epidermidis. Two Test Items were evaluated in this study; Levan and a Commercial reference (C.R.). The assay was carried out in triplicates. The in vitro activity of the Test items was evaluated by minimal inhibition concentration (MIC) assay. This was measured spectrometrically. The increase bacteria number versus time of incubation w/o or with increasing concentrations of the Test items was plotted. Streak plate isolation technique was performed to isolate a single homogenous colony, according to SOP. One colony of each bacterial strain was inoculated from agar plate into U-shape falcon tube at a final volume of 4 ml in BHI liquid broth. Cultures were incubated in a bacterial incubator-shaker at 37° C. with shaking at 250 rpm overnight. The cultures were diluted and grown to mid-log phase (O.D. Approx. 0.5; 600 nm). The exact O.D. was recorded [0.506]. Dose response analysis of six concentrations for each Test Item was performed in the bacteria as described in Table 7. The following control groups were included in this study: Naïve group (Group 1), Vehicle group (mock treatment—hexose, Group 2) and positive control groups (Ampicillin (100 μg/ml), Group 3). […] The absorbance was recorded at 600 nm. The absorbance of the blank control was subtracted from all measurements (0.107).

human skin explants [2] = experiment: Epidermal viability by MTT in human skin organ culture; settings: 10% SDS, positive control, 48 hr
Experimental: (§1) The human skin organ culture was obtained from a healthy patient undergoing plastic surgery (person). The study was initiated at the day of surgery.
(§2) Fixed size skin explant pieces (0.64 cm^2) were cut from the skin tissue, using a designated press apparatus.
(§3) The skin pieces were prepared and maintained in air liquid interphase; the explants were laid in 6-well culture plates containing skin culture medium (Dulbecco Minimal Essential Medium (DMEM) supplemented with 100 U/ml penicillin and 100 μg/ml streptomycin), dermal side down in the medium and epidermis phasing up. The pieces were left to recover at 37° C. with 5% CO2 overnight. […]
(§4) The following control groups were also included in this study: Naïve group (Group 1), Vehicle group (mock treatment—hexose, Group 2), and positive control groups for viability and proliferation (10% SDS, Group 3 and 10 ng/ml EGF, Group 4, respectively). Hyaluronic acid was evaluated in this system (0.2%, Group 5). […]
(§5) The pieces were incubated at 37° C. with 5% CO2 under humidified atmosphere for 48 hr. […] The epidermal viability was evaluated by MTT, according to standard operating procedure (SOP). […] Concomitantly, the epidermal turnover rate was determined on the second set of test groups by BrdU assay according to the kit's manufacturer instructions.

human skin explants [3] = experiment: Epidermal turnover rate by BrdU assay in human skin organ culture; settings: hyaluronic acid 0.2% with vehicle
Experimental: as §1, §2, §3, §4
as §5, with “instructions. […]” for “instructions.”
Colorimetric evaluation of the turnover rate was recorded by Enzyme-Linked Immunosorbent Assay (ELISA) reader.

CC1(C)S[C@@H]2[C@H](NC(=O)[C@H](N)c3ccccc3)C(=O)N2[C@H]1C(=O)O [Ampicillin]
bacterial growth (O.D. 600 nm) [1]: effectively blocked the bacterial growth

CCCCCCCCCCCCOS(=O)(=O)[O-].[Na+] [SDS]
skin viability (MTT) (human skin explants [2]): reduced skin viability

Hyaluronic acid
effectiveness compared with the disclosed levan-based composition (human skin explants [3]): less effective
